# Experimental data as given in patent US10441668B2, “System and method for enhanced mass spectrometry imaging” (University Health Network, priority 2014, dated 2019).
# Several values for one entry are separate records, joined by “and”; a condition that tells them apart may be missing. Equal values may be shown once.
# Tests used:
# breast cancer tumors = experiment: kinetic DCE magnetic resonance imaging of contrast agent passively targeted to breast cancer tumors in live mice; type: in vivo; conditions: intravenous injection into tail vein
# Protocol: Referring now to FIGS. 3A and 3B, shown therein are the results of kinetic DCE magnetic resonance imaging of an exogenous contrast agent (in this example Gadoteridol) that was passively targeted to breast cancer tumors in live mice. In both cases, Gadoteridol was intravenously injected into the tail vein of mice under anesthesia with isofluorane.
# A first MR image 305 was taken at the time of injection. […] A second MR image 310 was taken at 5 minutes post injection.
# As indicated by legend 322, the maximum signal intensity appears to reach its peak in plot 320 after 5 minutes. The exogenous agent was seen to penetrate and diffuse into the tumor core from the peripheries of the tumor.
# A second MR image 345 was taken at 5 minutes post injection.
# (§1) To obtain the images shown below in FIGS. 5A-5C and FIGS. 6A-6C, SCID mice (from Harlan Laboratories) were inoculated in the lower mammary fat pad with 3×106 human MDA-MB-231 triple negative metastatic breast cancer cells and housed for 3 weeks to grow tumors up to 1 cm in diameter (caliper measurements). […] Throughout the imaging sessions, the animals' breathing was monitored using a respiratory pad and a respiratory tracking system (when imaged on the 1T Aspect or 7T Bruker MRI system, ˜30 min per imaging session).
# [1] = system: human MDA-MB-231 breast cancer tumors; experiment: two-dimensional DESI-MS imaging of contrast agent distribution in excised human breast cancer tumor slices; type: in vivo, SCID mice; conditions: 5 minutes post injection, DESI-MS images vs H&E stained images
# Protocol: All the DESI-MS experiments described herein were performed using a Thermo Fisher Scientific LTQ mass spectrometer (San Jose, Calif., USA). Data was acquired and processed using QualBrowser Xcalibur 2.0 (Thermo Fisher Scientific). Mass spectra were acquired as full scans, in the positive ion mode, over the mass to charge ratio range from m/z 500 to 900. Typical instrumental parameters used were 4.5 kV capillary voltage and 275° C. capillary temperature. An H2O-MeOH (1:1) solution was used as the spray solvent and delivered at the flow rate of 1.5 μL min-1. Methanol (MeOH) and ultra-pure water (H2O), both HPLC-MS grade, were purchased from Sigma Aldrich (Oakville, ON, Canada). The sprayer-to-surface distance was 1.0 mm, the sprayer to inlet distance was 6-8 mm, an incident spray was set at 54°, and a collection angle of 10° was used. […]
# as §1, with “session). […]” for “session).”
# breast cancer tumor = experiment: ICP-MS quantification of Gd in sections of breast cancer tumor after acid extraction; type: in vivo, mice; conditions: 200 μm thick tumor slice
# From the text: Referring now to FIG. 10B, shown therein are the results of quantitative analysis of the distribution of an exogenous agent in a section of a breast cancer tumor. Here, ICP-MS was used to quantify the amount of Gadolinium (Gd) element in a 200 um thick section of the breast cancer tumor shown in FIG. 10A. The distribution of all three contributing Gadoteridol adducts (discussed above with reference to FIG. 4) are shown overlaid on an image of the tumor section.
# To validate the ion abundances shown in the DESI-MS image 1000, a 200 μm think-slice of tumor was sectioned into three areas (1025, 1030 and 1040). The total tissue weight in each section was determined using an analytical balance and Gadoteridol was acid extracted for ICP-MS quantification. Gadoteridol was extracted using excess volume (e.g., 3.5 mls for every 1 mg tissue material in two rounds) of 10% perchloric acid through mixing and vortexing followed by a 30 min centrifugation at 21,000G taking the supernatant that was then diluted 5× with double distilled water. For ICP-MS analysis both the standard Gadoteridol solutions and the extracted samples were taken up in excess 2% nitric acid (1000 fold dilution) and were subjected to ICP-MS quantification using a Nexlon 350 ICP-MS (Perkin-Elmer).
smiles,measurement,setting,value
CC(O)CN1CCN(CC(=O)[O-])CCN(CC(=O)[O-])CCN(CC(=O)[O-])CC1.[Gd+3] (centres unmarked) [Gadoteridol],time post injection at which the tumor site exhibits maximal contrast enhancement (MR signal intensity peak),breast cancer tumors,5 min and < 5 min
same,signal in necrotic region of the breast cancer tumor,[1],no Gadoteridol signal
same,"absolute value of Gd element in tumor section, first area 1025","breast cancer tumor; first area 1025, ICP-MS",54 pg
same,"absolute value of Gd element in tumor section, second area 1030","breast cancer tumor; second area 1030, ICP-MS",12.8 pg
same,"absolute value of Gd element in tumor section, third area 1040","breast cancer tumor; third area 1040, ICP-MS",27.5 pg
